In patent US20220315895A1, “METHODS OF MAKING OLIGOPOTENT AND UNIPOTENT PRECURSORS” (Transfusion Health, LLC, priority 2019, published 2022):

Assays:
Assay type in all cases: cell-based, human
[1] = test system: CD15+/CD14− cells; experiment: Phagocytosis assay with pHrodo green Staphylococcus aureus Bioparticles (Example 39); details: +Formula I Granulocyte Differentiation Cultures, day 13; 45 minutes at 37° C.
Description: On day 13 of Granulocyte Differentiation Culture, a portion of the culture was removed for in vitro analysis of granulocyte function through two separate assays for phagocytosis and respiratory burst. In the phagocytosis assay, the function of the cultured cells in ingesting bacteria was measured. pHrodo green Staphylococcus aureus Bioparticles (ThermoFisher), which fluoresce only when in an acidic environment such as a cellular phagosome following phagocytosis, were first treated with an opsonizing reagent to mark the particles for phagocytosis. The particles were then added to cells and incubated at 37° C. for 45 minutes. “Ice” control samples were incubated on ice during this period to prevent endocytosis and enable a measure of background fluorescence. Following this incubation, cells were stained with antibodies to CD15 and CD14, washed thoroughly, then analyzed via flow cytometry on an Attune flow cytometer. CD15+/CD14− cells were quantified for presence of phagocytosed particles.

[2] = test system: expanded cord blood CD34+ cells, granulocyte (CD15+/CD14−) and monocyte (CD14+/CD15−) lineage; experiment: Myeloid (granulocyte and monocyte) Differentiation Culture after Expansion Culture (Example 38)
Description: (§1) At days 21 and 63, CD34+ enriched cells were placed into Differentiation Cultures, described below.
(§2) Differentiation cultures were initiated using Erythroid, Myeloid (granulocyte and monocyte), and Megakaryocyte HemaTox kits from STEMCELL technologies following the manufacturer's instructions. In brief, lineage media was prepared by adding cytokine cocktails for erythrocyte (SCF, IL-3, and EPO), myeloid (i.e. mixed granulocyte/monocyte, SCF, TPO, G-CSF, and GM-CSF) or megakaryocyte (SCF, IL-6, IL-9 and TPO) lineage differentiation to their respective kits' media, then adding approximately 30-100 CD34+ cells for erythroid or myeloid cultures, or 300-1000 CD34+ cells for megakaryoid cultures. Exact cell numbers plated were quantified for later analysis. All incubations for Differentiation Culture took place at 3% oxygen (controlled by nitrogen) and 5% CO2.
(§3) Following seven days of erythroid or myeloid cultures, or ten days for megakaryoid cultures, differentiated cell output was quantified using flow cytometry. Erythroid output was quantified using anti-CD71 and anti-CD235a antibodies, and megakaryocyte lineage output was quantified using anti-CD41 and anti-CD42b antibodies. Granulocyte and monocyte lineage outputs were assessed in tandem, using CD14 and CD15 antibodies, with granulocyte lineage cells being CD15+/CD14−, and monocyte lineage cells being CD14+/CD15−.
A number of quantities were calculated to assess the effect of expansion of CD34+ cells in the +Formula I Condition on the output of lineage differentiated cells. “Per-Assayed-CD34+ Cell Output” describes the output of differentiated cells per CD34+ cell placed into Differentiation Culture, and is calculated by dividing the total number of lineage-positive cells by the input CD34+ cell number quantified at Differentiation Culture initiation at day 1, 21, or 63. “Per-expanded-day-1-CD34+ cell output” describes the number of differentiated cells of a given lineage that may be produced from a single CD34+ cell following both Expansion Cell Culture (if expanded) followed by Differentiation Culture, and is calculated by multiplying Per-Assayed-CD34+ Cell Output by the fold expansion of CD34+ cells from day 1 to the day of analysis, either day 21 or day 63. […] We calculated therapeutic units for granulocyte precursors, using 50 billion (5×10^10) cells per dose as a conservative benchmark (Valentini, C. G., Farina, F., Pagano, L., and Teofili, L. (2017). Granulocyte Transfusions: A Critical Reappraisal. Biol. Blood Marrow Transplant. 23, 2034-2041). […]

[3] = test system: expanded cord blood CD34+ cells, erythroid lineage (CD71, CD235a); experiment: Erythroid Differentiation Culture after Expansion Culture (Example 38); details: for cells with markers of erythrocyte differentiation (CD71 and/or CD235a), of total cells: seven days Erythroid Differentiation Culture; for cells with markers of erythrocyte differentiation (CD71 and/or CD235a), of total cells / cells positive for CD235a (maturing erythrocyte differentiation): average
Description: as §1, §2, §3
A number of quantities were calculated to assess the effect of expansion of CD34+ cells in the +Formula I Condition on the output of lineage differentiated cells. “Per-Assayed-CD34+ Cell Output” describes the output of differentiated cells per CD34+ cell placed into Differentiation Culture, and is calculated by dividing the total number of lineage-positive cells by the input CD34+ cell number quantified at Differentiation Culture initiation at day 1, 21, or 63. “Per-expanded-day-1-CD34+ cell output” describes the number of differentiated cells of a given lineage that may be produced from a single CD34+ cell following both Expansion Cell Culture (if expanded) followed by Differentiation Culture, and is calculated by multiplying Per-Assayed-CD34+ Cell Output by the fold expansion of CD34+ cells from day 1 to the day of analysis, either day 21 or day 63. “Per-banked-CBU lineage output” describes the number of differentiated cells of a given lineage that may be produced using the CD34+ cells from a full cord blood unit, and is calculated by multiplying the per-expanded-day-1-CD34+ cell output by 2×10^6, a conservative estimate the number of CD34+ cells in an average cord held in a public cord blood bank (Sun, J., Allison, J., McLaughlin, C., Sledge, L., Waters-Pick, B., Wease, S., and Kurtzberg, J. (2010). Differences in quality between privately and publicly banked umbilical cord blood units: a pilot study of autologous cord blood infusion in children with acquired neurologic disorders. Transfusion (Paris) 50, 1980-1987). This per-banked-CBU lineage output provides the ability to gauge the number of therapeutic units that may be derived from a single cord blood unit available as input to the manufacturing of a therapeutic product, and enables comparison to current state-of-the-art methods. Where relevant therapeutic dose benchmarks were available, this per-banked-CBU lineage output was used to calculate the number of therapeutic units that may be prepared from a single banked CBU unit. We calculated therapeutic units for granulocyte precursors, using 50 billion (5×10^10) cells per dose as a conservative benchmark (Valentini, C. G., Farina, F., Pagano, L., and Teofili, L. (2017). Granulocyte Transfusions: A Critical Reappraisal. Biol. Blood Marrow Transplant. 23, 2034-2041). […]

[4] = +Formula I expansion to day 21, then 7 days differentiation
[5] = +Formula I expansion to day 63, then 7 days differentiation

## CC(C)(C)C(=O)Nc1ccc2c(c1)C(O)c1ccccc1-2 (stereo not drawn) [Compound 1.010]
[1]
  CD15+ cells positive for phagocytosed particles: 89%
[2]; [4]
  fold increase of per-expanded-day-1-CD34+ cell output, monocyte lineage, over uncultured cells: 800 fold
  fold increase of per-expanded-day-1-CD34+ cell output, total granulocyte lineage, over uncultured cells: 370 fold
[2]; [5]
  fold increase of per-expanded-day-1-CD34+ cell output, monocyte lineage, over uncultured cells: 108,000 fold
  fold increase of per-expanded-day-1-CD34+ cell output, total granulocyte lineage, over uncultured cells: 67,000 fold
[3]; +Formula I expansion (Compound 1.010 8 μM) to day 21, then 7 days differentiation
  fold increase of per-expanded-day-1-CD34+ cell output, erythroid lineage, over uncultured cells: 301 fold
[3]; [5]
  fold increase of per-expanded-day-1-CD34+ cell output, erythroid lineage, over uncultured cells: 91,000 fold
[3]; expanded 21 or 63 days in Formula I condition, day seven of Erythroid Differentiation Culture
  CD71−/CD235a+ cells (mature erythrocytes): No CD71−/CD235a+ cells were detected
[3]; expanded 21 days in Formula I Condition
  cells with markers of erythrocyte differentiation (CD71 and/or CD235a), of total cells: 50%
[3]; expanded 21 days in Formula I condition, day seven of Erythroid Differentiation Culture
  cells positive for CD235a (maturing erythrocyte differentiation): 46%
[3]; expanded 63 days in Formula I Condition
  cells with markers of erythrocyte differentiation (CD71 and/or CD235a), of total cells: 75%
[3]; expanded 63 days in Formula I condition, day seven of Erythroid Differentiation Culture
  cells positive for CD235a (maturing erythrocyte differentiation): 86%
